Activity calls are given as the source filed them. The rule behind the calls is not given here.
Assays:
SK-LU-1 [1] = assay: Antiproliferative activity against human SK-LU-1 cells at 50 uM after 48 hrs by sulforhodamine B assay relative to control; type: functional; conditions: for inhibition at 50 µM: SK-LU-1, 48 h
[2] = target: T1, Nuclear factor erythroid 2-related factor 2 (Homo sapiens) (UniProt Q16236); assay: Activation of Nrf2 in human HaCaT-ARE-Luc cells at 50 uM after 6 hrs by luciferase reporter gene assay relative to control; type: cell-based
T1 sequence (whole entry): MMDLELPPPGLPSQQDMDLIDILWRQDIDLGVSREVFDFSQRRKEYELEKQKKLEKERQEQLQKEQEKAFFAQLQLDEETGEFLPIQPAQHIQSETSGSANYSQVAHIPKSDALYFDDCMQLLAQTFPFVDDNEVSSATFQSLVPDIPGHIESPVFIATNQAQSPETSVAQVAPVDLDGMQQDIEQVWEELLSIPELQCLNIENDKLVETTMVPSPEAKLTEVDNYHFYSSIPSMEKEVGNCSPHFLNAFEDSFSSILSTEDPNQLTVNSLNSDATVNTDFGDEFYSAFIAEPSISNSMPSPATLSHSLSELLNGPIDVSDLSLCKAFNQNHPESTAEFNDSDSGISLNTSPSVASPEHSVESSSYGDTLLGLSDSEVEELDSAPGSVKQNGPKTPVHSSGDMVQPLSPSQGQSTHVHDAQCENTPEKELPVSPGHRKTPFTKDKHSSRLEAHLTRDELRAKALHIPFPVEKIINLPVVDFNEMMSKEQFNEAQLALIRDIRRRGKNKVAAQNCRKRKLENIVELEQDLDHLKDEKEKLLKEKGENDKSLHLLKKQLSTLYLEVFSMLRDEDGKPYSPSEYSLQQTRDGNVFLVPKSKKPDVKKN

MCF7 [3] = assay: Antiproliferative activity against human MCF7 cells at 50 uM after 48 hrs by sulforhodamine B assay relative to control; type: functional; conditions: MCF7, 48 h
[4] = Inhibition of TNFalpha-stimulated NFkappaB (unknown origin) expressed in mouse NIH-3T3-KBFLuc cells at 50 uM after 6 hrs by luciferase reporter gene assay relative to control; type: cell-based; conditions: Homo sapiens
U-251 [5] = assay: Antiproliferative activity against human U251 cells at 50 uM after 48 hrs by sulforhodamine B assay relative to control; type: functional; conditions: for inhibition at 50 µM: U-251, 48 h
HCT-15 [6] = assay: Antiproliferative activity against human HCT15 cells at 50 uM after 48 hrs by sulforhodamine B assay relative to control; type: functional; conditions: for inhibition at 50 µM: HCT-15, 48 h
[7] = target: Signal transducer and activator of transcription 3 (Homo sapiens) (UniProt P40763); assay: Inhibition of IFNgamma-stimulated STAT3 (unknown origin) activation expressed in human HeLa cells at 50 uM after 6 hrs by luciferase reporter gene assay relative to control; type: cell-based
K562 [8] = assay: Antiproliferative activity against human K562 cells at 50 uM after 48 hrs by sulforhodamine B assay relative to control; type: functional; conditions: for inhibition at 50 µM: K562, 48 h
PC-3 [9] = assay: Antiproliferative activity against human PC3 cells at 50 uM after 48 hrs by sulforhodamine B assay relative to control; type: functional; conditions: PC-3, 48 h
SK-LU-1 [10] = assay: Antiproliferative activity against human SK-LU-1 cells after 48 hrs by sulforhodamine B assay; type: functional, cell-based; conditions: SK-LU-1, 48 h
PC-3 [11] = assay: Antiproliferative activity against human PC3 cells after 48 hrs by sulforhodamine B assay; type: functional, cell-based; conditions: PC-3, 48 h
K562 [12] = assay: Antiproliferative activity against human K562 cells after 48 hrs by sulforhodamine B assay; type: functional, cell-based; conditions: K562, 48 h
HCT-15 [13] = assay: Antiproliferative activity against human HCT15 cells after 48 hrs by sulforhodamine B assay; type: functional, cell-based; conditions: HCT-15, 48 h
U-251 [14] = assay: Antiproliferative activity against human U251 cells after 48 hrs by sulforhodamine B assay; type: functional, cell-based; conditions: U-251, 48 h
MCF7 [15] = assay: Antiproliferative activity against human MCF7 cells after 48 hrs by sulforhodamine B assay; type: functional, cell-based; conditions: MCF7, 48 h

Signal transducer and activator of transcription 3 (Homo sapiens), sequence (P40763 whole entry): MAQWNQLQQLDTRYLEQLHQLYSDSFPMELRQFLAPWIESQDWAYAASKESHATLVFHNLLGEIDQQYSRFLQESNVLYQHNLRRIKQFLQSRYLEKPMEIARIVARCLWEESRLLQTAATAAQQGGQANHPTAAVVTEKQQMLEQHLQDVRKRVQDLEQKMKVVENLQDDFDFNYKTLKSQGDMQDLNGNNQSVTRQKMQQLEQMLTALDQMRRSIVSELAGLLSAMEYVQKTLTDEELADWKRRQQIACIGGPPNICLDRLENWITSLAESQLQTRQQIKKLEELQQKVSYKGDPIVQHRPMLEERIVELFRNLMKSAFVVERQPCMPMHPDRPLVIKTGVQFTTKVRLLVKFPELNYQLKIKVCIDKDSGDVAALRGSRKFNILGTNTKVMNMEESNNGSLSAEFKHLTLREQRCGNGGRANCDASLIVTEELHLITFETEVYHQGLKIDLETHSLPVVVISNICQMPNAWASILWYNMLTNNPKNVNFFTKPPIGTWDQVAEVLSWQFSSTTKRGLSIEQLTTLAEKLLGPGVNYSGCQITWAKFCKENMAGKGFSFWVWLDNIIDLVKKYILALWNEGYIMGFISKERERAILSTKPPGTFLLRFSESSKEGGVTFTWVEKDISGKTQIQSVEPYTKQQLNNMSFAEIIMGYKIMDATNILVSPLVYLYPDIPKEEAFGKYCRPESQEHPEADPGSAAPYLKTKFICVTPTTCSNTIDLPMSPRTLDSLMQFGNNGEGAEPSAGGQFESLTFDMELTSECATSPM

| fold change (FC) [2] | inhibition [7] | IC50 (SK-LU-1 [10]) | IC50 (PC-3 [11]) | IC50 (K562 [12]) | IC50 (HCT-15 [13]) | IC50 (U-251 [14]) | IC50 (MCF7 [15]) | Compound | inhibition at 50 µM (SK-LU-1 [1]) | inhibition at 50 µM (MCF7 [3]) | inhibition [4] | inhibition (U-251 [5]) | inhibition (HCT-15 [6]) | inhibition (K562 [8]) | inhibition at 50 µM (PC-3 [9]) | inhibition at 50 µM (U-251 [5]) | inhibition at 50 µM (HCT-15 [6]) | inhibition at 50 µM (K562 [8]) | inhibition (SK-LU-1 [1]) |
| --- | --- | --- | --- | --- | --- | --- | --- | --- | --- | --- | --- | --- | --- | --- | --- | --- | --- | --- | --- |
| 1.9 | 2.7% | – | – | – | – | – | – | Cc1cc2c(C(C)C)ccc(C)c2cc1OC(=O)c1cccc(C(F)(F)F)c1 | 17.3% | 41.5% | 4.8% | inactive | inactive | inactive | 26.7% | – | – | – | – |
| 1.3 | 2.7% | – | – | – | – | – | – | CC1=CC[C@H](C(C)C)c2cc(C)c(OC(=O)c3ccc(Cl)cc3)cc21 | 17.4% | 79.7% | 36.1% | – | – | – | 34.1% | 25.6% | 47.4% | 58.9% | – |
| 1.7 | 1.3% | 23.9 µM | 44 µM | 19.1 µM | 34 µM | 35.5 µM | 32.1 µM | Cc1cc2c(C(C)C)ccc(C)c2cc1OC(=O)c1ccc(Cl)cc1 | 100% | 76% | 15.5% | – | – | – | 81.1% | 92.8% | 82.2% | 95.4% | – |
| 1.8 | 2% | – | 47.1 µM | – | – | – | – | Cc1cccc(C(=O)Oc2cc3c(C)ccc(C(C)C)c3cc2C)c1 | – | 50.4% | 4.8% | – | – | – | 52.4% | 5.2% | 27.6% | 17.1% | inactive |
| 1.7 | 2.3% | – | – | – | – | – | – | CC1=CC[C@H](C(C)C)c2cc(C)c(OC(=O)c3cccc(C)c3)cc21 | – | 54.9% | 44.2% | – | – | inactive | 38.6% | 16.8% | 5.3% | – | inactive |
| 1.7 | 1.8% | – | – | – | – | – | – | Cc1cc2c(C(C)C)ccc(C)c2cc1OC(=O)c1cccc(Cl)c1 | 11.6% | 11.4% | 25.6% | – | inactive | inactive | 4.2% | 0.8% | – | – | – |
| 1.9 | 0.5% | – | – | – | – | – | – | Cc1cc2c(C(C)C)ccc(C)c2cc1OC(=O)c1ccccc1 | 63% | 51% | 34.5% | – | – | – | 21.2% | 41.5% | 72% | 44.3% | – |
| 1.7 | 0.9% | – | 34 µM | – | – | – | – | Cc1cc2c(C(C)C)ccc(C)c2cc1OC(=O)c1ccc(C(F)(F)F)cc1 | 28.7% | 16.8% | 5.2% | – | – | – | 100% | 16.5% | 55.6% | 45.1% | – |
| 1.6 | 2.5% | – | – | – | – | – | – | CC1=CC[C@H](C(C)C)c2cc(C)c(OC(=O)c3ccc(C(F)(F)F)cc3)cc21 | – | 40.4% | 25.4% | – | – | – | 12.3% | 14.7% | 6.4% | 9% | inactive |
| 8.5 | 1.6% | 42.9 µM | 42.5 µM | – | 56.3 µM | – | – | CC1=CC[C@H](C(C)C)c2cc(C)c(OC(=O)c3ccc([N+](=O)[O-])cc3)cc21 | 47.5% | 72.9% | 7.2% | – | – | – | 36.7% | 16.8% | 67.8% | 89% | – |
| 6.6 | 2.4% | – | – | – | – | – | – | CC1=CC[C@H](C(C)C)c2cc(C)c(OC(=O)c3ccccc3)cc21 | 37% | 60.7% | 47.2% | – | – | inactive | 22.5% | 25.8% | 49.5% | – | – |
| 1.9 | 1.8% | – | 32.2 µM | – | – | – | – | COc1ccc(C(=O)Oc2cc3c(cc2C)[C@@H](C(C)C)CC=C3C)cc1 | 18.6% | 80.1% | 49.2% | – | – | – | 60.6% | 37% | 30.8% | 46.5% | – |
| 1.4 | 1.5% | – | – | – | – | – | – | CC1=CC[C@H](C(C)C)c2cc(C)c(OC(=O)c3cccc(Cl)c3)cc21 | 30.6% | 40.4% | 22.5% | – | – | inactive | 23.4% | 0.9% | 5.3% | – | – |
| 1.5 | 0.8% | – | – | – | – | – | – | COc1cccc(C(=O)Oc2cc3c(C)ccc(C(C)C)c3cc2C)c1 | 30.6% | 31.8% | 2.8% | inactive | – | – | 12.5% | – | 35.2% | 14.2% | – |
| 1.3 | 2.5% | – | – | – | – | – | – | COc1ccc(C(=O)Oc2cc3c(C)ccc(C(C)C)c3cc2C)cc1 | 32.8% | 93.4% | 26.9% | – | – | – | 10.4% | 42.6% | 84% | 88.6% | – |

Further lines, the compound ahead of its results:

| Compound | fold change (FC) [2] | inhibition [7] | IC50 (SK-LU-1 [10]) | IC50 (PC-3 [11]) | IC50 (K562 [12]) | IC50 (HCT-15 [13]) | IC50 (U-251 [14]) | IC50 (MCF7 [15]) | inhibition at 50 µM (SK-LU-1 [1]) | inhibition at 50 µM (MCF7 [3]) | inhibition [4] | inhibition (U-251 [5]) | inhibition (HCT-15 [6]) | inhibition (K562 [8]) | inhibition at 50 µM (PC-3 [9]) | inhibition at 50 µM (U-251 [5]) | inhibition at 50 µM (HCT-15 [6]) | inhibition at 50 µM (K562 [8]) | inhibition (SK-LU-1 [1]) |
| --- | --- | --- | --- | --- | --- | --- | --- | --- | --- | --- | --- | --- | --- | --- | --- | --- | --- | --- | --- |
| CC1=C2CCC(C(=O)O)=C[C@@H]2[C@@H](C(C)C)CC1 | 1.4 | 3.8% | – | – | – | – | – | – | – | – | 5.9% | – | – | – | – | – | – | – | – |
| CC1=CC[C@H](C(C)C)c2cc(C(=O)O)ccc21 | 1.8 | 2.9% | – | – | – | – | – | – | – | – | 7.3% | – | – | – | – | – | – | – | – |
| CC1=CC[C@H](C(C)C)c2cc(C)c(OC(=O)c3cccc([N+](=O)[O-])c3)cc21 | 1.5 | 3.2% | – | – | – | – | – | – | 60.4% | 29.3% | 3.5% | – | – | – | 36.9% | 44% | 45.9% | 15.9% | – |
| COc1c(C(C)C)cc(C)c2ccc(C)cc12 | 1.9 | 0.9% | – | – | – | – | – | – | – | – | 26.5% | – | – | – | – | – | – | – | – |
| COc1cccc(C(=O)Oc2cc3c(cc2C)[C@@H](C(C)C)CC=C3C)c1 | 1.6 | 3.3% | – | – | – | – | – | – | 24.2% | 11.9% | 41.2% | inactive | inactive | inactive | 16.3% | – | – | – | – |
| Cc1cc2c(C(C)C)ccc(C=O)c2cc1O | 1.6 | 3.5% | – | – | – | – | – | – | – | – | 40.1% | – | – | – | – | – | – | – | – |
| CC1=CC[C@H](C(C)C)c2cc(C)c(OC(=O)c3cccc(C(F)(F)F)c3)cc21 | 1.9 | 1.7% | – | – | – | – | – | – | 18.3% | 86% | 4.4% | – | – | – | 25.4% | 29.3% | 15% | 45.5% | – |
| CC(C)[C@H]1CC[C@@](C)(O)c2ccc(C(=O)O)cc21 | 1.7 | 3.8% | – | – | – | – | – | – | – | – | 6.7% | – | – | – | – | – | – | – | – |
| CC1=C[C@](O)(C(C)C)C(=O)c2cc(C)c(O)cc21 | 1.3 | 2.2% | – | – | – | – | – | – | – | – | 28.8% | – | – | – | – | – | – | – | – |
| CC1=CC[C@H](C(C)C)[C@H]2C=C(C(=O)O)CC=C12 | 1.9 | 3.6% | – | – | – | – | – | – | – | – | 12.3% | – | – | – | – | – | – | – | – |
| Cc1ccc2c(c1)C(=O)C(C(C)C)=C[C@@]2(C)O | 1.7 | 2.4% | – | – | – | – | – | – | – | – | 11.1% | – | – | – | – | – | – | – | – |

Reference: ChEMBL document CHEMBL4033638, “Effect of natural and semi-synthetic cadinanes from Heterotheca inuloides on NF-κB, Nrf2 and STAT3 signaling pathways and evaluation of their in vitro cytotoxicity in human cancer cell lines” (Bioorg Med Chem, 2017)
